Measurements: ChEMBL document CHEMBL1201862, “PubChem BioAssay data set” (2004)
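Where inhibition never reached the appropriate level, the endpoint shown equals the highest concentration tested. Otherwise, values were interpolated linearly from a five-concentration, 48-hour dose response in 96-well plates. Here, GI50 denotes the concentration required for 50% inhibition of growth.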 Activity calls are given as the source filed them. Cut-off read from the data, not from the text of the source: active = GI50 up to about 1.1 µM and inactive = higher.

Columns and labels:
Test in all cases: NCI-60 cell line screen, 48 h
[1] = test system: DMS-114
[2] = test system: HT-29
[3] = test system: HCT-15
[4] = test system: DMS-273
[5] = test system: NCI-H460
[6] = test system: KM12
[7] = test system: T47D
[8] = test system: SW-620
[9] = test system: NCI-H23
[10] = test system: M14
[11] = test system: SF-268
[12] = test system: HCC 2998
[13] = test system: 786-0
[14] = test system: CCRF-CEM
[15] = test system: SNB-75
[16] = test system: RPMI-8226
[17] = test system: MDA-MB-435
[18] = test system: CAKI-1
[19] = test system: DU-145
[20] = test system: OVCAR-3
[21] = test system: COLO 205
[22] = test system: SR
[23] = test system: Malme-3M
[24] = test system: RXF 631
[25] = test system: HOP-18
[26] = test system: HL-60
[27] = test system: MDA-MB-231
[28] = test system: UACC-62
[29] = test system: HOP-92
[30] = test system: SF-295
[31] = test system: Hs-578T
[32] = test system: K562
[33] = test system: EKVX
[34] = test system: NCI-H226
[35] = test system: A549
[36] = test system: TK-10
[37] = test system: PC-3
[38] = test system: SK-MEL-5
[39] = test system: A498
[40] = test system: UO-31
[41] = test system: NCI-H522
[42] = test system: LOX IMVI
[43] = test system: MDA-N
[44] = test system: IGROV-1
[45] = test system: BT-549
[46] = test system: DLD-1
[47] = test system: SNB-19
[48] = test system: MCF7
[49] = test system: OVCAR-4
[50] = test system: LXFL 529
[51] = test system: SK-OV-3
[52] = test system: NCI/ADR-RES
[53] = test system: SN12C
[54] = test system: UACC-257
[55] = test system: SK-MEL-28
[56] = test system: OVCAR-5
[57] = test system: OVCAR-8
[58] = test system: ACHN
[59] = test system: MOLT-4
[60] = test system: RXF 393
[61] = test system: SF-539
[62] = test system: M19-MEL
[63] = test system: KM-20L2
[64] = test system: HCT-116
[65] = test system: SNB-78
[66] = test system: HOP-62
[67] = test system: SK-MEL-2
[68] = test system: XF498
[69] = test system: U-251

SC1=NC2(CCCCCC2)NN1c1ccccc1
GI50 [1]: 0.273 µM (active)
GI50 [2]: 1.35 µM (inactive)
GI50 [3]: 0.168 µM
GI50 [4]: 0.166 µM (active)
GI50 [5]: 0.979 µM (active)
GI50 [6]: 0.291 µM (active)
GI50 [7]: 0.597 µM (active)
GI50 [8]: 1.78 µM (inactive)
GI50 [9]: 9.23 µM (inactive)
GI50 [10]: 1.61 µM (inactive)
GI50 [11]: 0.184 µM (active)
GI50 [12]: 0.386 µM (active)
GI50 [13]: > 30.6 µM (inactive)
GI50 [14]: 0.0664 µM (active)
GI50 [15]: > 66.8 µM (inactive)
GI50 [16]: 0.769 µM (active)
GI50 [17]: 3.61 µM (inactive)
GI50 [18]: 0.218 µM (active)
GI50 [19]: 0.0708 µM (active)
GI50 [20]: 9.91 µM (inactive)
GI50 [21]: 0.104 µM (active)
GI50 [22]: 28.8 µM (inactive)
GI50 [23]: 16.4 µM (inactive)
GI50 [24]: 2.81 µM (inactive)
GI50 [25]: > 100 µM (inactive)
GI50 [26]: 0.0867 µM (active)
GI50 [27]: > 100 µM (inactive)
GI50 [28]: 0.0208 µM (active)
GI50 [29]: > 100 µM (inactive)
GI50 [30]: 0.0471 µM (active)
GI50 [31]: > 100 µM (inactive)
GI50 [32]: 0.019 µM (active)
GI50 [33]: 36.5 µM (inactive)
GI50 [34]: > 100 µM (inactive)
GI50 [35]: 0.206 µM (active)
GI50 [36]: > 28.6 µM (inactive)
GI50 [37]: 29.6 µM (inactive)
GI50 [38]: 93.3 µM (inactive)
GI50 [39]: 50.5 µM (inactive)
GI50 [40]: 0.168 µM (active)
GI50 [41]: > 100 µM (inactive)
GI50 [42]: 0.82 µM (active)
GI50 [43]: 3.09 µM (inactive)
GI50 [44]: > 39.4 µM (inactive)
GI50 [45]: > 100 µM (inactive)
GI50 [46]: 0.34 µM (active)
GI50 [47]: > 41 µM (inactive)
GI50 [48]: 1.36 µM (inactive)
GI50 [49]: 2.16 µM (inactive)
GI50 [50]: 0.0407 µM (active)
GI50 [51]: > 100 µM (inactive)
GI50 [52]: > 100 µM (inactive)
GI50 [53]: > 27.3 µM (inactive)
GI50 [54]: 23.9 µM (inactive)
GI50 [55]: 1.11 µM (active)
GI50 [56]: 1.91 µM (inactive)
GI50 [57]: 15.5 µM (inactive)
GI50 [58]: 0.0785 µM (active)
GI50 [59]: 0.891 µM (active)

COc1cc2c(cc1O)CC13CCC(=O)N1CCc1cc(OC)c(O)c-2c13 (stereo unspecified)
GI50 [1]: > 68.1 µM (inactive)
GI50 [60]: > 68.1 µM (inactive)
GI50 [2]: > 68.1 µM (inactive)
GI50 [3]: > 68.1 µM
GI50 [5]: > 68.1 µM (inactive)
GI50 [8]: > 68.1 µM (inactive)
GI50 [9]: > 68.1 µM (inactive)
GI50 [10]: > 68.1 µM (inactive)
GI50 [11]: > 68.1 µM (inactive)
GI50 [12]: > 68.1 µM (inactive)
GI50 [13]: > 68.1 µM (inactive)
GI50 [14]: > 68.1 µM (inactive)
GI50 [15]: > 68.1 µM (inactive)
GI50 [16]: > 68.1 µM (inactive)
GI50 [18]: > 68.1 µM (inactive)
GI50 [20]: > 68.1 µM (inactive)
GI50 [21]: > 68.1 µM (inactive)
GI50 [22]: > 68.1 µM (inactive)
GI50 [23]: > 68.1 µM (inactive)
GI50 [24]: 39.9 µM (inactive)
GI50 [25]: > 68.1 µM (inactive)
GI50 [26]: > 68.1 µM (inactive)
GI50 [28]: > 68.1 µM (inactive)
GI50 [29]: > 68.1 µM (inactive)
GI50 [30]: > 68.1 µM (inactive)
GI50 [32]: > 68.1 µM (inactive)
GI50 [33]: > 68.1 µM (inactive)
GI50 [34]: > 68.1 µM (inactive)
GI50 [35]: > 68.1 µM (inactive)
GI50 [36]: > 68.1 µM (inactive)
GI50 [38]: > 68.1 µM (inactive)
GI50 [61]: > 68.1 µM (inactive)
GI50 [39]: > 68.1 µM (inactive)
GI50 [40]: > 68.1 µM (inactive)
GI50 [42]: > 68.1 µM (inactive)
GI50 [62]: > 68.1 µM (inactive)
GI50 [44]: > 68.1 µM (inactive)
GI50 [46]: > 68.1 µM (inactive)
GI50 [47]: > 68.1 µM (inactive)
GI50 [49]: > 68.1 µM (inactive)
GI50 [50]: > 68.1 µM (inactive)
GI50 [63]: > 68.1 µM (inactive)
GI50 [64]: > 68.1 µM (inactive)
GI50 [53]: > 68.1 µM (inactive)
GI50 [54]: > 68.1 µM (inactive)
GI50 [55]: > 68.1 µM (inactive)
GI50 [65]: > 68.1 µM (inactive)
GI50 [56]: > 68.1 µM (inactive)
GI50 [57]: > 68.1 µM (inactive)
GI50 [66]: > 68.1 µM (inactive)
GI50 [58]: > 68.1 µM (inactive)
GI50 [59]: > 68.1 µM (inactive)

O=C(CC1C(=O)c2ccccc2C1=C1C(=O)c2ccccc2C1=O)c1ccccc1 (stereo unspecified)
GI50 [1]: > 100 µM (inactive)
GI50 [60]: > 100 µM (inactive)
GI50 [2]: > 100 µM (inactive)
GI50 [3]: 64.4 µM
GI50 [4]: > 100 µM (inactive)
GI50 [5]: > 100 µM (inactive)
GI50 [67]: > 100 µM (inactive)
GI50 [6]: > 100 µM (inactive)
GI50 [8]: > 100 µM (inactive)
GI50 [9]: > 100 µM (inactive)
GI50 [68]: > 100 µM (inactive)
GI50 [10]: > 100 µM (inactive)
GI50 [11]: > 100 µM (inactive)
GI50 [12]: > 100 µM (inactive)
GI50 [13]: 50.6 µM (inactive)
GI50 [14]: 32 µM (inactive)
GI50 [15]: > 100 µM (inactive)
GI50 [16]: > 100 µM (inactive)
GI50 [18]: > 100 µM (inactive)
GI50 [21]: 37.2 µM (inactive)
GI50 [23]: > 100 µM (inactive)
GI50 [25]: > 100 µM (inactive)
GI50 [26]: 44.6 µM (inactive)
GI50 [28]: > 100 µM (inactive)
GI50 [29]: 74.3 µM (inactive)
GI50 [30]: > 100 µM (inactive)
GI50 [69]: > 100 µM (inactive)
GI50 [32]: 30.3 µM (inactive)
GI50 [33]: > 100 µM (inactive)
GI50 [34]: > 100 µM (inactive)
GI50 [35]: > 100 µM (inactive)
GI50 [36]: > 100 µM (inactive)
GI50 [38]: > 100 µM (inactive)
GI50 [61]: > 100 µM (inactive)
GI50 [39]: > 100 µM (inactive)
GI50 [40]: > 100 µM (inactive)
GI50 [41]: 19.9 µM (inactive)
GI50 [42]: > 100 µM (inactive)
GI50 [62]: 78.9 µM (inactive)
GI50 [44]: > 100 µM (inactive)
GI50 [46]: > 100 µM (inactive)
GI50 [47]: > 100 µM (inactive)
GI50 [49]: 77.6 µM (inactive)
GI50 [50]: 85.5 µM (inactive)
GI50 [63]: > 100 µM (inactive)
GI50 [51]: > 100 µM (inactive)
GI50 [53]: > 100 µM (inactive)
GI50 [54]: > 100 µM (inactive)
GI50 [55]: > 100 µM (inactive)
GI50 [65]: > 100 µM (inactive)
GI50 [56]: > 100 µM (inactive)
GI50 [57]: > 100 µM (inactive)
GI50 [66]: > 100 µM (inactive)
GI50 [58]: 80.4 µM (inactive)
GI50 [59]: 77.3 µM (inactive)
